Measurements as given in PubChem BioAssay AID1918993 (Molecular Pharmacology Branch, DTP, NCI, 2023).

Tested on: 233499-124-R-J3-PDC complex spheroid growth
Assay: Anticancer human tumor 233499-124-R-J3-PDC patient-derived colon adenocarcinoma cell line growth inhibition [AhR]
Conditions: for IC50: curve of first compound; for viability, T/C: stronger effect = lower value; active means viability on the fitted dose curve at most 10% of control; inactive means the rest
Method in brief: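 Complex tumor spheroids co-cultured with HUVEC and human MSC stroma; AhR antagonists tested in combination with standard-of-care and investigational agents. Top concentration at or near clinical Cmax (else 10 microM), half-log dilutions; growth expressed as percent test/control.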

[1] = second compound 0.1 µM, first compound 0.00316 µM
[2] = second compound 0.1 µM, first compound 0.01 µM
[3] = second compound 0.1 µM, first compound 0.0316 µM
[4] = second compound 0.1 µM, first compound 0.1 µM
[5] = second compound 0.316 µM, first compound 0.00316 µM
[6] = second compound 0.316 µM, first compound 0.01 µM
[7] = second compound 0.316 µM, first compound 0.0316 µM
[8] = second compound 0.316 µM, first compound 0.1 µM
[9] = second compound 1 µM, first compound 0.00316 µM
[10] = second compound 1 µM, first compound 0.01 µM
[11] = second compound 1 µM, first compound 0.0316 µM
[12] = second compound 1 µM, first compound 0.1 µM
[13] = second compound 3.16 µM, first compound 0.00316 µM
[14] = second compound 3.16 µM, first compound 0.01 µM
[15] = second compound 3.16 µM, first compound 0.0316 µM
[16] = second compound 3.16 µM, first compound 0.1 µM
[17] = second compound 10 µM, first compound 0.00316 µM
[18] = second compound 10 µM, first compound 0.01 µM
[19] = second compound 10 µM, first compound 0.0316 µM
[20] = second compound 10 µM, first compound 0.1 µM
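Further: spheroids exposed to agents for seven days before reading.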

Nc1ncn(C2CC(O)C(CO)O2)c(=O)n1 (stereo not given) + Cc1cncc(-c2nc(NCCc3c[nH]c4ccccc34)c3ncn(C(C)C)c3n2)c1
inactive: viability, T/C [1] 97.4% | viability, T/C [2] 85% | viability, T/C [3] 91.3% | viability, T/C [4] 88% | viability, T/C (second compound 0.1 µM, first compound 0.316 µM) 87.8% | viability, T/C (second compound 0.1 µM, first compound 1 µM) 81.2% | viability, T/C [5] 88.8% | viability, T/C [6] 89.8% | viability, T/C [7] 84.6% | viability, T/C [8] 84% | viability, T/C (second compound 0.316 µM, first compound 0.316 µM) 87.4% | viability, T/C (second compound 0.316 µM, first compound 1 µM) 96.9% | viability, T/C [9] 82.9% | viability, T/C [10] 83.9% | viability, T/C [11] 86.8% | viability, T/C [12] 81% | viability, T/C (second compound 1 µM, first compound 0.316 µM) 82.9% | viability, T/C (second compound 1 µM, first compound 1 µM) 93.4% | viability, T/C [13] 82.7% | viability, T/C [14] 76.2% | viability, T/C [15] 82.4% | viability, T/C [16] 81% | viability, T/C (second compound 3.16 µM, first compound 0.316 µM) 76.5% | viability, T/C (second compound 3.16 µM, first compound 1 µM) 88.6% | viability, T/C [17] 16.3% | viability, T/C [18] 26.8% | viability, T/C [19] 36.8% | viability, T/C [20] 44.8% | viability, T/C (second compound 10 µM, first compound 0.316 µM) 21.5% | viability, T/C (second compound 10 µM, first compound 1 µM) 26.4%
> 1000 nM: IC50 (second compound 0.1 µM) | IC50 (second compound 0.316 µM) | IC50 (second compound 1 µM) | IC50 (second compound 3.16 µM)
< 3.16 nM: IC50 (second compound 10 µM)

CC(C)CC(NC(=O)C(Cc1ccccc1)NC(=O)c1cnccn1)B(O)O (stereo not given) + Cc1cncc(-c2nc(NCCc3c[nH]c4ccccc34)c3ncn(C(C)C)c3n2)c1
active: viability, T/C (second compound 0.1 µM, first compound 0.03 µM) 0.15% | viability, T/C (second compound 0.1 µM, first compound 0.0949 µM) 0.05% | viability, T/C (second compound 0.1 µM, first compound 0.3 µM) 0.13% | viability, T/C (second compound 0.316 µM, first compound 0.03 µM) 0.12% | viability, T/C (second compound 0.316 µM, first compound 0.0949 µM) 0.04% | viability, T/C (second compound 0.316 µM, first compound 0.3 µM) 0.13% | viability, T/C (second compound 1 µM, first compound 0.03 µM) 0.12% | viability, T/C (second compound 1 µM, first compound 0.0949 µM) 0.05% | viability, T/C (second compound 1 µM, first compound 0.3 µM) 0.13% | viability, T/C (second compound 3.16 µM, first compound 0.03 µM) 0.11% | viability, T/C (second compound 3.16 µM, first compound 0.0949 µM) 0.04% | viability, T/C (second compound 3.16 µM, first compound 0.3 µM) 0.9% | viability, T/C (second compound 10 µM, first compound 0.000949 µM) 8.49% | viability, T/C (second compound 10 µM, first compound 0.003 µM) 5.28% | viability, T/C (second compound 10 µM, first compound 0.00949 µM) 4.74% | viability, T/C (second compound 10 µM, first compound 0.03 µM) 0.17% | viability, T/C (second compound 10 µM, first compound 0.0949 µM) 0.15% | viability, T/C (second compound 10 µM, first compound 0.3 µM) 0.21%
13.2 nM: IC50 (second compound 1 µM)
inactive: viability, T/C (second compound 0.1 µM, first compound 0.000949 µM) 98.3% | viability, T/C (second compound 0.1 µM, first compound 0.003 µM) 95.1% | viability, T/C (second compound 0.1 µM, first compound 0.00949 µM) 86.4% | viability, T/C (second compound 0.316 µM, first compound 0.000949 µM) 92% | viability, T/C (second compound 0.316 µM, first compound 0.003 µM) 86.9% | viability, T/C (second compound 0.316 µM, first compound 0.00949 µM) 70.9% | viability, T/C (second compound 1 µM, first compound 0.000949 µM) 92.1% | viability, T/C (second compound 1 µM, first compound 0.003 µM) 89% | viability, T/C (second compound 1 µM, first compound 0.00949 µM) 69.7% | viability, T/C (second compound 3.16 µM, first compound 0.000949 µM) 86.2% | viability, T/C (second compound 3.16 µM, first compound 0.003 µM) 82.1% | viability, T/C (second compound 3.16 µM, first compound 0.00949 µM) 68.3%
< 0.949 nM: IC50 (second compound 10 µM)
15.4 nM: IC50 (second compound 0.1 µM)
13.3 nM: IC50 (second compound 0.316 µM)
12.9 nM: IC50 (second compound 3.16 µM)

Cn1ncnc1C1c2n[nH]c(=O)c3cc(F)cc(c23)NC1c1ccc(F)cc1 (stereo not given) + CC(CO)NC(=O)c1cc(-c2ccc(Cl)cc2)nn(-c2cnn(C)c2)c1=O
> 100 nM: IC50 (second compound 0.1 µM) | IC50 (second compound 0.316 µM) | IC50 (second compound 1 µM) | IC50 (second compound 3.16 µM) | IC50 (second compound 10 µM)
inactive: viability, T/C (second compound 0.1 µM, first compound 0.000316 µM) 97.1% | viability, T/C (second compound 0.1 µM, first compound 0.001 µM) 102% | viability, T/C [1] 101% | viability, T/C [2] 106% | viability, T/C [3] 86.7% | viability, T/C [4] 104% | viability, T/C (second compound 0.316 µM, first compound 0.000316 µM) 90.6% | viability, T/C (second compound 0.316 µM, first compound 0.001 µM) 104% | viability, T/C [5] 88.6% | viability, T/C [6] 92.6% | viability, T/C [7] 108% | viability, T/C [8] 87.5% | viability, T/C (second compound 1 µM, first compound 0.000316 µM) 93.6% | viability, T/C (second compound 1 µM, first compound 0.001 µM) 103% | viability, T/C [9] 92.2% | viability, T/C [10] 109% | viability, T/C [11] 77.6% | viability, T/C [12] 101% | viability, T/C (second compound 3.16 µM, first compound 0.000316 µM) 97% | viability, T/C (second compound 3.16 µM, first compound 0.001 µM) 103% | viability, T/C [13] 87.9% | viability, T/C [14] 98.9% | viability, T/C [15] 91.2% | viability, T/C [16] 87.6% | viability, T/C (second compound 10 µM, first compound 0.000316 µM) 83.2% | viability, T/C (second compound 10 µM, first compound 0.001 µM) 80.8% | viability, T/C [17] 90.2% | viability, T/C [18] 83% | viability, T/C [19] 87% | viability, T/C [20] 78.7%
